In patent publication US9980943B2, “Methods of treating muscular dystrophy” (BOARD OF REGENTS OF THE NEVADA SYSTEM OF HIGHER EDUCATION, …, priority 2013, dated 2018):
Values joined by “and” are separate entries in the source; they are usually repeats but may differ in a detail not shown here. Equal values may be shown once.

How the values were obtained:
Assay type in all cases: cell-based, mouse
[1] = system: α7 integrin (LacZ reporter in α7βgal+/− myoblasts); assay: Myoblast α7+/LacZ integrin FDG assay (Burkin assay in myoblasts, 96-well); conditions: α7+/LacZ myoblasts, 96-well
[2] = system: α7 integrin (LacZ reporter in α7+/LacZ myotubes); assay: Myotube α7 integrin FDG assay (Burkin assay in myotubes, 96-well); conditions: myotubes
[3] = system: β-galactosidase in CMV-LacZ C2C12 myoblasts; assay: CMV-LacZ secondary screen in C2C12 myoblasts (β-Gal stabilizing assay); conditions: CMV-LacZ C2C12 myoblasts
In short: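 C2C12 myoblasts stably carrying a linearized CMV-driven LacZ construct, clone chosen by β-gal level in the myoblast FDG assay. Compounds tested in 96-well dose-response at 0.5, 1, 5, 10, 20 and 40 μM, N=2 replicates per point, to detect β-gal stabilization.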

[4] = system: β-galactosidase in CMV-LacZ C2C12 myotubes; assay: CMV-LacZ secondary screen in C2C12 myotubes (β-Gal stabilizing assay); conditions: C2C12 CMV-LacZ myotubes, fold relative to DMSO
In short: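 CMV-LacZ C2C12 line (clonal, FDG-screened); myoblasts/myotubes dosed 0.5–40 μM (0.5, 1, 5, 10, 20, 40 μM); n=2 per point; β-gal stabilization read-out.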

Structure (SMILES)	CMV-LACZ in Myoblasts (β-galactosidase activity relative to DMSO) ([3]; 0.5 uM)	CMV-LACZ in Myoblasts (β-galactosidase activity relative to DMSO) ([3]; 1 uM)	CMV-LACZ in Myoblasts (β-galactosidase activity relative to DMSO) ([3]; 5 uM)	CMV-LACZ in Myoblasts (β-galactosidase activity relative to DMSO) ([3]; 10 uM)	CMV-LACZ in Myoblasts (β-galactosidase activity relative to DMSO) ([3]; 20 uM)	CMV-LACZ in Myoblasts (β-galactosidase activity relative to DMSO) ([3]; 40 uM)	Burkin Assay in Myoblasts, signal relative to DMSO ([1]; 0.5 uM)	Burkin Assay in Myoblasts, signal relative to DMSO ([1]; 1 uM)	Burkin Assay in Myoblasts, signal relative to DMSO ([1]; 5 uM)	Burkin Assay in Myoblasts, signal relative to DMSO ([1]; 10 uM)	Burkin Assay in Myoblasts, signal relative to DMSO ([1]; 20 uM)	Burkin Assay in Myoblasts, signal relative to DMSO ([1]; 40 uM)	Burkin Assay in Myotubes, α7 integrin LacZ reporter signal relative to DMSO ([2]; 0.5 uM)	Burkin Assay in Myotubes, α7 integrin LacZ reporter signal relative to DMSO ([2]; 1 uM)	Burkin Assay in Myotubes, α7 integrin LacZ reporter signal relative to DMSO ([2]; 5 uM)	Burkin Assay in Myotubes, α7 integrin LacZ reporter signal relative to DMSO ([2]; 10 uM)	Burkin Assay in Myotubes, α7 integrin LacZ reporter signal relative to DMSO ([2]; 20 uM)	Burkin Assay in Myotubes, α7 integrin LacZ reporter signal relative to DMSO ([2]; 40 uM)	CMV-LACZ in Myotubes, signal relative to DMSO ([4]; 0.5 uM)	CMV-LACZ in Myotubes, signal relative to DMSO ([4]; 1 uM)	other results
COc1ccc(N2CCN(C(=O)c3cc(C)on3)CC2)cc1 [MLS001124046-01]	0.8409	1.2650	0.9307	0.8501	0.9881	1.0807	–	–	–	–	–	–	–	–	–	–	–	–	–	–	fold induction at 0.5 µM ([1]; Mus musculus, Myoblast, 48 h, 0.5 uM, read-out: Burkin Assay in Myoblasts, signal relative to DMSO): 1.06; fold induction at 1 µM ([1]; Mus musculus, Myoblast, 48 h, 1 uM, read-out: Burkin Assay in Myoblasts, signal relative to DMSO): 1.16; fold induction at 5 µM ([1]; Mus musculus, Myoblast, 48 h, 5 uM, read-out: Burkin Assay in Myoblasts, signal relative to DMSO): 1.08; fold induction at 10 µM ([1]; Mus musculus, Myoblast, 48 h, 10 uM, read-out: Burkin Assay in Myoblasts, signal relative to DMSO): 1.01; fold induction at 20 µM ([1]; Mus musculus, Myoblast, 48 h, 20 uM, read-out: Burkin Assay in Myoblasts, signal relative to DMSO): 1.1; fold induction at 40 µM ([1]; Mus musculus, Myoblast, 48 h, 40 uM, read-out: Burkin Assay in Myoblasts, signal relative to DMSO): 1.07; fold induction at 0.5 µM ([2]; Mus musculus, Myotube, 0.5 uM, read-out: Burkin Assay in Myotubes, α7 integrin LacZ reporter signal relative to DMSO): 1.15; fold induction at 1 µM ([2]; Mus musculus, Myotube, 1 uM, read-out: Burkin Assay in Myotubes, α7 integrin LacZ reporter signal relative to DMSO): 1.1; fold induction at 5 µM ([2]; Mus musculus, Myotube, 5 uM, read-out: Burkin Assay in Myotubes, α7 integrin LacZ reporter signal relative to DMSO): 1.42; fold induction at 10 µM ([2]; Mus musculus, Myotube, 10 uM, read-out: Burkin Assay in Myotubes, α7 integrin LacZ reporter signal relative to DMSO): 1.02; fold induction at 20 µM ([2]; Mus musculus, Myotube, 20 uM, read-out: Burkin Assay in Myotubes, α7 integrin LacZ reporter signal relative to DMSO): 0.893; fold induction at 40 µM ([2]; Mus musculus, Myotube, 40 uM, read-out: Burkin Assay in Myotubes, α7 integrin LacZ reporter signal relative to DMSO): 0.92; fold induction at 0.5 µM ([4]; Mus musculus, C2C12, read-out: CMV-LACZ in Myotubes, signal relative to DMSO, 0.5 uM): 1.02; fold induction at 1 µM ([4]; Mus musculus, C2C12, read-out: CMV-LACZ in Myotubes, signal relative to DMSO, 1 uM): 1.02; fold induction at 5 µM ([4]; Mus musculus, C2C12, read-out: CMV-LACZ in Myotubes, signal relative to DMSO, 5 uM): 0.84; fold induction at 10 µM ([4]; Mus musculus, C2C12, read-out: CMV-LACZ in Myotubes, signal relative to DMSO, 10 uM): 1.02; fold induction at 20 µM ([4]; Mus musculus, C2C12, read-out: CMV-LACZ in Myotubes, signal relative to DMSO, 20 uM): 1.09; fold induction at 40 µM ([4]; Mus musculus, C2C12, read-out: CMV-LACZ in Myotubes, signal relative to DMSO, 40 uM): 0.981
CC1(C)Cc2c(cnn2-c2cccc(F)c2)C(NC(=O)CCc2cnccn2)C1 (stereo not drawn) [MLS001125260-01]	1.1581	1.0584	1.0114	0.9131	1.0563	1.2270	1.21 and 1.071	1.11 and 1.021	0.9838 and 0.9248	0.9616 and 0.8893	1.024 and 0.8738	0.9057 and 0.8426	1.285 and 1.002	1.208 and 0.8663	0.9677 and 1.022	1.091 and 0.9402	0.7634 and 0.9057	0.7451 and 0.9086	1.0074	1.0993	CMV-LACZ in Myotubes, signal relative to DMSO ([4]; 5 uM): 0.9614 and 0.9645; CMV-LACZ in Myotubes, signal relative to DMSO ([4]; 10 uM): 1.0994 and 1.065; CMV-LACZ in Myotubes, signal relative to DMSO ([4]; 20 uM): 1.0000 and 1.0765; CMV-LACZ in Myotubes, signal relative to DMSO ([4]; 40 uM): 0.9212 and 1.175
CC(C)c1ccc(OC(=O)c2cccc(S(=O)(=O)N3CCN(C)CC3)c2)cc1 [MLS001130011-01]	1.1702	0.7695	1.0011	1.1138	0.7837	0.8311	0.9715	0.8947	1.374	0.9762	1.037	0.9155	0.9553	0.9952	0.8834	1.0699	0.7883	0.7512	0.9358	1.0211	CMV-LACZ in Myotubes, signal relative to DMSO ([4]; 5 uM): 0.9057; CMV-LACZ in Myotubes, signal relative to DMSO ([4]; 10 uM): 0.8998; CMV-LACZ in Myotubes, signal relative to DMSO ([4]; 20 uM): 0.8367; CMV-LACZ in Myotubes, signal relative to DMSO ([4]; 40 uM): 1.0156
Cn1ccc(C(=O)Nc2cccnc2Cl)n1 [MLS001147478-01]	1.0721	0.8808	1.2105	1.2999	1.0513	0.8747	1.142	1.091	1.0569	1.192	0.9651	0.8215	1.076	0.9677	0.9933	1.041	0.8876	0.8744	1.3536	1.3827	CMV-LACZ in Myotubes, signal relative to DMSO ([4]; 5 uM): 0.8937; CMV-LACZ in Myotubes, signal relative to DMSO ([4]; 10 uM): 1.2959; CMV-LACZ in Myotubes, signal relative to DMSO ([4]; 20 uM): 1.0810; CMV-LACZ in Myotubes, signal relative to DMSO ([4]; 40 uM): 0.9510
CC1Cc2ccccc2N1C(=O)CSc1nnc(N)s1 (stereo not drawn) [MLS001160611-01]	1.2070	0.8157	1.0117	1.0340	0.8144	1.0389	1.1058	0.9767	1.004	1.115	0.9749	0.9267	0.9452	0.8628	1.006	1.169	0.8397	1.24	0.9762	1.2419	CMV-LACZ in Myotubes, signal relative to DMSO ([4]; 5 uM): 0.8306; CMV-LACZ in Myotubes, signal relative to DMSO ([4]; 10 uM): 0.9661; CMV-LACZ in Myotubes, signal relative to DMSO ([4]; 20 uM): 1.0240; CMV-LACZ in Myotubes, signal relative to DMSO ([4]; 40 uM): 0.9190
